# From patent US11572341B2, “Biguanide compound and use thereof” (ImmunoMet Therapeutics Inc., priority 2014, dated 2023)
# Where a name gives a salt, the structure may show the parent alone.
# Key:
# HCT116 cells = assay: Inhibitory effect against cancer cell proliferation (MTT); type: cell-based, human; conditions: Homo sapiens, HCT-116; HCT116, MTT, 48 hours; read-out: IC50 (uM) @ HCT116
# Protocol: The formazane crystals thus formed were dissolved using dimethyl sulfoxide (DMSO) and absorbance of the solution was measured at 560 nm. After culturing for 48 hours, […] synthesized in Examples was indicated as cell viability (%) according to each treated concentration.
# AMPKa [pT172] = assay: AMPKa activation [pT172] in MCF7 cell; type: cell-based
Structure (SMILES),IC50 (HCT116 cells) [µM],AMPKa activation [pT172] (Unit/ml) @ MCF7 cell (AMPKa [pT172]; 5 uM) [Unit/ml],AMPKa activation [pT172] (Unit/ml) @ MCF7 cell (AMPKa [pT172]; 10 uM) [Unit/ml],AMPKa activation [pT172] (Unit/ml) @ MCF7 cell (AMPKa [pT172]; 50 uM) [Unit/ml]
"CN1CCN(C(=N)NC(=N)Nc2cccc(F)c2)CC1.Cl [Example 28, N1-(4-methyl)piperazin-N5-(3-fluoro)phenyl Biguanide Hydrochloride]",> 100,7.7,9.2,7.9
"CN1CCN(C(=N)NC(=N)Nc2cccc(Cl)c2)CC1.Cl [Example 29, N1-(4-methyl)piperazin-N5-(3-chloro)phenyl Biguanide Hydrochloride]",> 100,4.0,5.4,6.8
"CN1CCN(C(=N)NC(=N)Nc2ccccc2Cl)CC1.Cl [Example 30, N1-(4-methyl)piperazin-N5-(2-chloro)phenyl Biguanide Hydrochloride]",> 100,4.2,4.0,4.2
"CN1CCN(C(=N)NC(=N)NCc2ccc(Cl)cc2)CC1.Cl [Example 31, N1-(4-methyl)piperazin-N5-(4-chloro)benzyl Biguanide Hydrochloride]",> 100,2.5,3.6,6.1
"CN1CCN(C(=N)NC(=N)NCc2ccccc2Cl)CC1.Cl [Example 32, N1-(4-methyl)piperazin-N5-(2-chloro)benzyl Biguanide Hydrochloride]",> 100,5.5,5.2,5.3
"CN1CCN(C(=N)NC(=N)Nc2ccc(F)cc2)CC1.Cl [Example 33, N1-(4-methyl)piperazin-N5-(4-fluoro)phenyl Biguanide Hydrochloride]",> 100,3.8,3.3,4.3
"CN1CCN(C(=N)NC(=N)Nc2ccccc2F)CC1.Cl [Example 34, N1-(4-methyl)piperazin-N5-(2-fluoro)phenyl Biguanide Hydrochloride]",> 100,4.5,3.7,7.0
"CCCCNC(=N)NC(=N)N1CCN(C)CC1.Cl [Example 36, N1-(4-methy)piperazin-N5-butyl Biguanide Hydrochloride]",> 100,5.5,5.8,4.8
"CN1CCN(C(=N)NC(=N)Nc2ccc(Cl)c(Cl)c2)CC1.Cl [Example 37, N1-(4-methyl)piperazin-N5-(3,4-dichloro)phenyl Biguanide Hydrochloride]",32.8,5.8,7.5,15.0
"CN1CCN(C(=N)NC(=N)Nc2cc(F)cc(F)c2)CC1.Cl [Example 39, N1-(4-methyl)piperazin-N5-(3,5-difluoro)phenyl Biguanide Hydrochloride]",> 100,6.2,7.1,8.2
"CN1CCN(C(=N)NC(=N)Nc2cc(F)c(F)c(F)c2)CC1.Cl [Example 40, N1-(4-methyl)piperazin-N5-(3,4,5-trifluoro)phenyl Biguanide Hydrochloride]",> 100,7.0,5.1,7.2
"Cl.N=C(NC(=N)Nc1cccc(C(F)(F)F)c1)Nc1cccnc1 [Example 41, N1-3-pyridin-N5-(3-trifluoromethyl)phenyl Biguanide Hydrochloride]",> 100,8.3,10.2,14.4
"C/N=C(\NCCc1ccccc1)NC(=N)N(C)C [Example 97, N1-phenethyl-N2-methyl-N5,N5-dimethyl Biguanide Hydrochloride]",7.5,,,
"Cl.N=C(N)NC(=N)N1CCOCC1 [Example 118, Hydrochloride]",> 100,,,
"Cl.N=C(N)NC(=N)Nc1ccc(OC(F)(F)F)cc1 [Example 140, Hydrochloride]",100,,,
